Measured values: patent publication US11040981B2, “Pyrrolotriazine compounds and methods of inhibiting TAM kinases” (Syros Pharmaceuticals, Inc., priority 2017, dated 2021)

Experiments:
MERTK = target: T1, MERTK (Homo sapiens, UniProt Q12866); experiment: TR-FRET kinase activity assay, MERTK; format: biochemical; settings: for IC50: TR-FRET activity assay, ATP at Km, 60 minutes, read-out: Mer IC50
T1 sequence (Q12866 21-999): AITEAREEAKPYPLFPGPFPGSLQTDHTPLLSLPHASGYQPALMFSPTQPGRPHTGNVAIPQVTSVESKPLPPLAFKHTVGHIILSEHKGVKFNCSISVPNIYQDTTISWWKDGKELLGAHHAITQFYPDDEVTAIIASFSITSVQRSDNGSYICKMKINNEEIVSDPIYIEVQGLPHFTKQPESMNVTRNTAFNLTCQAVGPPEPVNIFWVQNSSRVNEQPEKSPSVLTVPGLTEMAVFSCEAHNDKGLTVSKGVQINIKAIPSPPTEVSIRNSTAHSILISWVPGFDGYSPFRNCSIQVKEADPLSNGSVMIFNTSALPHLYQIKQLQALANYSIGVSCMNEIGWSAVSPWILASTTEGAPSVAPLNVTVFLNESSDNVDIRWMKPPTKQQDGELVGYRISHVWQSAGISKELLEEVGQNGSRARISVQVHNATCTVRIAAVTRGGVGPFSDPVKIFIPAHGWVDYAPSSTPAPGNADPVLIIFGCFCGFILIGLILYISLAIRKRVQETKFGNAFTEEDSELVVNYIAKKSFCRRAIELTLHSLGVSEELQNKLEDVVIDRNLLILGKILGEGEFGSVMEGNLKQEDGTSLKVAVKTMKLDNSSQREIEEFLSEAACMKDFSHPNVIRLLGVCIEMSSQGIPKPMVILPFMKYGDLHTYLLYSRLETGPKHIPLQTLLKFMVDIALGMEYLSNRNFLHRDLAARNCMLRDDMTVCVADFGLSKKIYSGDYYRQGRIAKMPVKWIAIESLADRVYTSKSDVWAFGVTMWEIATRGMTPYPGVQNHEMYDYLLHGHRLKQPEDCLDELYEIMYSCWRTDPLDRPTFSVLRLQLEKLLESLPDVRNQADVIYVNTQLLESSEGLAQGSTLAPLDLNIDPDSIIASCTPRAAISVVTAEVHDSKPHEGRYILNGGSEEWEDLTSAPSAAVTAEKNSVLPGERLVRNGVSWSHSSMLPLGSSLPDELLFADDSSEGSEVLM
Method in brief: (§1)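 IC50 reflects the drop in TR-FRET between Eu anti-phosphotyrosine antibody and labelled peptide after a 60-minute room-temperature reaction. Buffer was 50 mM HEPES pH 7.5 with 10 mM MgCl2, 1 mM EGTA, 0.01% Brij 35 and 1 mM DTT, with ATP at Km per enzyme and EDTA quench.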

AXL = target: T2, AXL (Homo sapiens, UniProt P30530); experiment: TR-FRET kinase activity assay, AXL; format: biochemical; settings: ATP at Km, 60 minutes
T2 sequence (P30530 26-894): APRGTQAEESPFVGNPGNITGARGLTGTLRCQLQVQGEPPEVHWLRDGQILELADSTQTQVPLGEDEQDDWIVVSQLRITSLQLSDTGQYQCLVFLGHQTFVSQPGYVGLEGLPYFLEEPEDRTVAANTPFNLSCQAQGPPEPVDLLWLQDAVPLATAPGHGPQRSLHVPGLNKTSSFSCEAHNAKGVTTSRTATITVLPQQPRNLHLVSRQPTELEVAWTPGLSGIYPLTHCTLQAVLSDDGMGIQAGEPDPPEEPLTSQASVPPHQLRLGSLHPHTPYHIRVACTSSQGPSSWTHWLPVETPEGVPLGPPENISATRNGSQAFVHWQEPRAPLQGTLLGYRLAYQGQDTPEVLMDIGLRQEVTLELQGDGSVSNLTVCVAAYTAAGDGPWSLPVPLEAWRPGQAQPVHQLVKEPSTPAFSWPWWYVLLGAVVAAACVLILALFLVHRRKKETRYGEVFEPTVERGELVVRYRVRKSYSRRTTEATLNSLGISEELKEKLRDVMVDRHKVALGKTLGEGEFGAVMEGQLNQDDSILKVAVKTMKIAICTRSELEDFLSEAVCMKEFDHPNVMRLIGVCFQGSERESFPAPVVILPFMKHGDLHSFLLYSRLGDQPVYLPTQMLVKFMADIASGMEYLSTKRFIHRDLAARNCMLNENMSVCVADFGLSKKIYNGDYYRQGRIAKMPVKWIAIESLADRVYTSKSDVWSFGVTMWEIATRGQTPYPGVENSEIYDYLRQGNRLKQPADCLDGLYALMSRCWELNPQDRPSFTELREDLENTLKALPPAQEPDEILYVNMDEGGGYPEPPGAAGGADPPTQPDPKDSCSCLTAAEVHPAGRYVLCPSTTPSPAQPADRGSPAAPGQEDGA
Method in brief: as §1

[1] = ratio calculated as FLT3 IC50/Mer IC50
[2] = ratio of Mer to FLT3: FLT3 IC50/Mer IC50

SMILES	IC50 (MERTK)	FLT3/Mer ratio (FLT3 IC50/Mer IC50) (MERTK; [1])	IC50 (AXL)	FLT3/Mer ratio (FLT3 IC50/Mer IC50) (MERTK; [2])
COC[C@H](C)Nc1ncc2c(-c3ccnc(N4CCN(C5COC5)CC4)c3)cc([C@H]3CC[C@H](O)CC3)n2n1 [Compound 486]	≤ 100 nM	+++ (“+++” represents a ratio of >100)	≤ 100 nM	
COC[C@H](C)Nc1ncc2c(-c3ccnc(N4CC5(COC5)C4)c3)cc([C@H]3CC[C@H](O)CC3)n2n1 [Compound 426]	≤ 100 nM	+++ (“+++” represents a ratio of >100)	≤ 100 nM	
COC[C@H](C)Nc1ncc2c(C3=C[C@@H]4CC[C@H](C3)N4C)cc([C@H]3CC[C@H](O)CC3)n2n1 [Compound 465]	≤ 100 nM	+++ (“+++” represents a ratio of >100)	≤ 100 nM	
COC[C@H](C)Nc1ncc2c(-c3cnn(C(C)(C)C(=O)N4CCC(C)(O)CC4)c3)cc([C@H]3CC[C@H](O)CC3)n2n1 [Compound 450]	≤ 100 nM	+++ (“+++” represents a ratio of >100)	≤ 100 nM	
COC[C@H](C)Nc1ncc2c(-c3cnn([C@H]4CCN(C)C4=O)c3)cc([C@H]3CC[C@H](O)CC3)n2n1 [Compound 470]	≤ 100 nM	+++ (“+++” represents a ratio of >100)	≤ 100 nM	
COC[C@H](C)Nc1ncc2c(-c3ccnc(Oc4cccnc4)c3)cc([C@H]3CC[C@H](O)CC3)n2n1 [Compound 490]	≤ 100 nM	+++ (“+++” represents a ratio of >100)	≤ 100 nM	
C[C@@H](COC(F)F)Nc1ncc2c(-c3cnn(CCC#N)c3)cc([C@H]3CC[C@H](O)CC3)n2n1 [Compound 437]	≤ 100 nM	+++ (“+++” represents a ratio of >100)	≤ 100 nM	
COC[C@H](C)Nc1ncc2c(-c3ccc(CC(=O)O)cc3)cc([C@H]3CC[C@H](O)CC3)n2n1 [Compound 133]	≤ 100 nM		≤ 100 nM	+++ (“+++” represents a ratio of >100)
COC[C@H](C)Nc1ncc2c(-c3ccnc(N4CCC5(CC4)COC5)c3)cc([C@H]3CC[C@H](O)CC3)n2n1 [Compound 427]	≤ 100 nM	+++ (“+++” represents a ratio of >100)	≤ 100 nM	
COC[C@H](C)Nc1ncc2c([C@H]3CC[C@@H](C(=O)N4CCOCC4)CC3)cc([C@H]3CC[C@H](O)CC3)n2n1 [Compound 484]	≤ 100 nM	+++ (“+++” represents a ratio of >100)	100 to 1000 nM	
C[C@@H](CC(F)(F)F)Nc1ncc2c(C3=CCNCC3)cc([C@H]3CC[C@H](O)CC3)n2n1 [Compound 442]	≤ 100 nM	++ (“++” represents a ratio of between 10 and 100)	≤ 100 nM	
CC[C@H](C)Nc1ncc2c(C3=CCNCC3)cc([C@H]3CC[C@H](O)CC3)n2n1 [Compound 130]	≤ 100 nM		≤ 100 nM	+++ (“+++” represents a ratio of >100)
COC[C@H](C)Nc1ncc2c(-c3ccnc(N4CCC5(COC5)C4)c3)cc([C@H]3CC[C@H](O)CC3)n2n1 [Compound 493]	≤ 100 nM	+++ (“+++” represents a ratio of >100)	≤ 100 nM	
COC[C@H](C)Nc1ncc2c(-c3cnn(C(C)(C)c4nnc(C)o4)c3)cc([C@H]3CC[C@H](O)CC3)n2n1 [Compound 440]	≤ 100 nM	+++ (“+++” represents a ratio of >100)	≤ 100 nM	
COC[C@H](C)Nc1ncc2c(-c3cnn(C(C)(C)CN4CCOCC4)c3)cc([C@H]3CC[C@H](O)CC3)n2n1 [Compound 459]	≤ 100 nM	+++ (“+++” represents a ratio of >100)	≤ 100 nM	
COC[C@H](C)Nc1ncc2c(-c3cnn(CC4CCO4)c3)cc([C@H]3CC[C@H](O)CC3)n2n1 (stereo partly drawn) [Compound 439]	≤ 100 nM	+++ (“+++” represents a ratio of >100)	≤ 100 nM	
COC[C@H](C)Nc1ncc2c(-c3ccnc(N4Cc5nc(C)sc5C4)c3)cc([C@H]3CC[C@H](O)CC3)n2n1 [Compound 479, (trans)-4-(2-(((S)-1-methoxypropan-2-yl)amino)-5-(2-(2-methyl-4H-pyrrolo[3,4-d]thiazol-5(6H)-yl)pyridin-4-yl)pyrrolo[2,1-f][1,2,4]triazin-7-yl)cyclohexanol]	≤ 100 nM	+++ (“+++” represents a ratio of >100)	≤ 100 nM	
COC[C@H](C)Nc1ncc2c(-c3cnn(C[C@H]4CC(=O)N(C)C4)c3)cc([C@H]3CC[C@H](O)CC3)n2n1 [Compound 475]	≤ 100 nM	+++ (“+++” represents a ratio of >100)	≤ 100 nM	
CCC(=O)N1CCN(c2cc(-c3cc([C@H]4CC[C@H](O)CC4)n4nc(N[C@@H](C)COC)ncc34)ccn2)CC1 [Compound 432]	≤ 100 nM	+++ (“+++” represents a ratio of >100)	≤ 100 nM	
C[C@@H](CC(F)F)Nc1ncc2c(-c3ccc(S(C)(=O)=O)nc3)cc([C@H]3CC[C@H](O)CC3)n2n1 [Compound 489]	≤ 100 nM	+++ (“+++” represents a ratio of >100)	≤ 100 nM	
COC[C@H](C)Nc1ncc2c(-c3cnn(C4COC4)c3)cc([C@H]3CC[C@](C)(O)CC3)n2n1 (single isomer, unassigned) [Compound 452]	≤ 100 nM	+++ (“+++” represents a ratio of >100)	≤ 100 nM	
COC[C@H](C)Nc1ncc2c(-c3ccnc(N4CCc5nc(C)sc5C4)c3)cc([C@H]3CC[C@H](O)CC3)n2n1 [Compound 509]	≤ 100 nM	+++ (“+++” represents a ratio of >100)	≤ 100 nM	
CNS(=O)(=O)c1ccc(-c2cc([C@H]3CC[C@H](O)CC3)n3nc(N[C@@H](C)COC(F)F)ncc23)cn1 [Compound 424]	≤ 100 nM	+++ (“+++” represents a ratio of >100)	≤ 100 nM	
COC[C@H](C)Nc1ncc2c(-c3csc(C(=O)N4CCOCC4)c3)cc([C@H]3CC[C@H](O)CC3)n2n1 [Compound 444]	≤ 100 nM	+++ (“+++” represents a ratio of >100)	≤ 100 nM	
C[C@H](CC(F)(F)F)Nc1ncc2c(C3=C[C@H]4CC[C@@H](C3)N4C(=O)OC(C)(C)C)cc([C@H]3CC[C@H](O)CC3)n2n1 [Compound 456]	≤ 100 nM	+++ (“+++” represents a ratio of >100)	≤ 100 nM	
COC[C@H](C)Nc1ncc2c(-c3ccnc(N4CCN(C(=O)C5COC5)CC4)c3)cc([C@H]3CC[C@H](O)CC3)n2n1 [Compound 500]	≤ 100 nM	+++ (“+++” represents a ratio of >100)	≤ 100 nM	
